Test results taken from patent publication US20170281650A1 (priority 2014, published 2017).
Entries after “also recorded” stand apart in the source; their conditions may differ. Like-named read-outs stand apart in the source and are kept apart here.

Assays:
Golden Syrian hamsters [1] = test: Analysis of fecal neutral and acidic sterols in hamster hyperlipidemia model; format: in vivo; details: for increase in excretion of cholesterol and its microbial derivatives compared with the HCD control: feces
Protocol: (§1) Six different experimental diets were prepared by mixing the ingredients according to Table 1 and blending these mixtures with a gelatin solution (20 g/L) in a ratio of 200 g composition per liter of solution. Once the gelatin had set, the product were cut into pieces of approximately 10 g cubes and stored frozen at −80° C. until use.
(§2) After this acclimation period the hamsters were randomly divided into six test groups and fed one of the experimental diets for another six weeks.
Neutral and acidic sterols in the feces were quantified by a standard method using gas chromatography (GC). In brief, the total fecal sample (300 mg) from each hamster was freeze-dried, ground and well mixed. 0.3 mg of 5α-cholestanol was added as an internal standard for quantification of neutral sterols by GC analysis. The remaining aqueous layer was saved for the analysis of acidic sterols.

LDL receptor [2] = test: mRNA of hepatic LDL receptor; format: in vivo, Golden Syrian hamsters; details: liver, 6 weeks
Golden Syrian hamsters [3] = test: Analysis of liver cholesterol and dihydrocholesterol in hamster hyperlipidemia model; format: in vivo; details: 6 weeks
Protocol: as §1, §2
Cholesterol content in organs was determined by a standard method. Cholesterol in the tissue sample was calculated according to the amount of internal standard 5α-cholestanol added.

Golden Syrian hamsters [4] = test: Analysis of plasma lipoproteins (TC, HDL, non-HDL cholesterol, TG) in hamster hyperlipidemia model; format: in vivo; details: for plasma TC compared with the HCD group / plasma TG compared with the HCD group / plasma non-HDL-C compared with the HCD group: end of week 6; for dose dependence of the cholesterol-lowering effect: 0.2% versus 0.3% in diet
Protocol: as §1
(§3) 46 male Golden Syrian hamsters (n=46; body weights=110-120 g) were housed in wire-bottomed cages at 23° C. in an animal room with 12-hour light-dark cycle (one per cage). All hamsters were maintained on a standard cereal based diet for two weeks.
as §2
Plasma total cholesterol (TC) and triacylglycerols (TG) were quantified using commercial enzymatic kits from Infinity (Waltham, Mass., U.S.A) and Stanbio Laboratories (Boerne, Tex., U.S.A.), respectively. To determine high-density lipoprotein cholesterol (HDL), low-density lipoprotein cholesterol (LDL) and very low-density lipoprotein cholesterol (VLDL) were first precipitated with a commercial kit (Stanbio) containing phosphotungstic acid and magnesium chloride. HDL cholesterol in supernatant phase was measured similarly as done for TC. Non-HDL cholesterol was calculated by deducing HDL cholesterol from TC.

[5] = Food intake, body and organ weight in hamster hyperlipidemia model; format: in vivo, Golden Syrian hamsters; details: 6 weeks
Protocol: as §1, §3, §2

Golden Syrian hamsters [6] = format: in vivo; details: 6 weeks
[7] = test system: liver X receptor alpha (LXRα); test: Immunoblot of hepatic LXRα protein mass; format: in vivo, Golden Syrian hamsters; details: western blot, 6 weeks
LDL receptor [8] = test: Immunoblot of hepatic LDL receptor protein mass; format: in vivo, Golden Syrian hamsters; details: liver, western blot; 0.3% in high cholesterol diet, 6 weeks
[9] = 0.2% in high cholesterol diet, week 6
[10] = 0.3% in high cholesterol diet, week 6

| Compound | total fecal neutral sterols excreted compared with the controls (Golden Syrian hamsters [1]; [9]) | total fecal neutral sterols excreted compared with the controls (Golden Syrian hamsters [1]; [10]) | mRNA level of the LDL receptor compared with the HCD control (LDL receptor [2]; 0.2% in high cholesterol diet) | mRNA level of the LDL receptor compared with the HCD control (LDL receptor [2]; 0.3% in high cholesterol diet) | decrease in liver cholesterol (Golden Syrian hamsters [3]; 0.2% in high cholesterol diet) [%] | hepatic cholesterol levels compared with the HCD control (Golden Syrian hamsters [3]; 0.2% in high cholesterol diet) | decrease in liver cholesterol (Golden Syrian hamsters [3]; 0.3% in high cholesterol diet) [%] | hepatic cholesterol levels compared with the HCD control (Golden Syrian hamsters [3]; 0.3% in high cholesterol diet) | plasma TC compared with the HCD group (Golden Syrian hamsters [4]; 0.2% in high cholesterol diet) | plasma TG compared with the HCD group (Golden Syrian hamsters [4]; 0.2% in high cholesterol diet) | plasma non-HDL-C compared with the HCD group (Golden Syrian hamsters [4]; 0.2% in high cholesterol diet) | dose dependence of the cholesterol-lowering effect (Golden Syrian hamsters [4]) | plasma TC compared with the HCD group (Golden Syrian hamsters [4]; 0.3% in high cholesterol diet) | plasma TG compared with the HCD group (Golden Syrian hamsters [4]; 0.3% in high cholesterol diet) | plasma non-HDL-C compared with the HCD group (Golden Syrian hamsters [4]; 0.3% in high cholesterol diet) | epididymal fat pad weight compared with the control ([5]; 0.2% in high cholesterol diet) | kidney weight compared with HCD ([5]; 0.2% in high cholesterol diet) | liver weight compared with the HCD group ([5]; 0.2% in high cholesterol diet) | kidney weight compared with HCD ([5]; 0.3% in high cholesterol diet) | liver weight compared with the HCD group ([5]; 0.3% in high cholesterol diet) | further results |
| --- | --- | --- | --- | --- | --- | --- | --- | --- | --- | --- | --- | --- | --- | --- | --- | --- | --- | --- | --- | --- | --- |
| CC(C)CCC[C@@H](C)[C@H]1CC[C@H]2[C@@H]3CC[C@H]4C[C@@H](O)CC[C@]4(C)[C@H]3CC[C@]12C [DHC, dihydrocholesterol] | greater | greater | up-regulated | up-regulated | 67.5 | significantly lower | 71.5 | significantly lower | significantly lower; also recorded: significantly reduces | significantly lower; also recorded: significantly reduces | significantly lower | not dose-dependent | significantly lower; also recorded: significantly reduces | significantly lower; also recorded: significantly reduces | significantly lower | decreased | no significant difference | decreased | reduced | decreased | excretion of total neutral sterols compared with corresponding SA and SB (β-sitosterol) groups (Golden Syrian hamsters [1]; 0.2% and 0.3% diets, week 6): greater; increase in excretion of cholesterol and its microbial derivatives compared with the HCD control (Golden Syrian hamsters [1]; 0.2% in high cholesterol diet): 11.5 fold; increase in excretion of cholesterol and its microbial derivatives compared with the HCD control (Golden Syrian hamsters [1]; 0.3% in high cholesterol diet): 19.1 fold; DHC accumulated in the liver (Golden Syrian hamsters [3]; 0.2% DHC in high cholesterol diet (DA)): about 2 mg DHC/g liver; reducing the liver cholesterol, compared with SA and SB (β-sitosterol) (Golden Syrian hamsters [3]; 0.2% and 0.3% diets): more effective; DHC accumulated in the liver (Golden Syrian hamsters [3]; 0.3% DHC in high cholesterol diet (DB)): about 2 mg DHC/g liver; reducing serum TG, compared with β-sitosterol (Golden Syrian hamsters [4]; 0.2% and 0.3% diets): more effective than β-sitosterol; Body Weight Final ([5]; 0.2% in high cholesterol diet): 115.38 ± 9.02 g; Body Weight Final ([5]; 0.3% in high cholesterol diet): 115.43 ± 7.00 g; atherosclerotic plague compared with the HCD control group (Golden Syrian hamsters [6]; 0.2% in high cholesterol diet): significantly lesser; atherosclerotic plague compared with the HCD control group (Golden Syrian hamsters [6]; 0.3% in high cholesterol diet): significantly lesser; LXRα protein mass ([7]; 0.2% in high cholesterol diet): up-regulated LXRα slightly; LXRα protein mass ([7]; 0.3% in high cholesterol diet): up-regulated LXRα slightly |
| CC[C@H](CC[C@@H](C)[C@H]1CC[C@H]2[C@@H]3CC=C4C[C@@H](O)CC[C@]4(C)[C@H]3CC[C@]12C)C(C)C [β-sitosterol, reference compound] | greater | greater | up-regulated | up-regulated | 30.5 | significantly lower | 38.4 | significantly lower | significantly lower | significantly lower | significantly lower | dose-dependent | significantly lower | significantly lower | significantly lower | decreased | reduced | decreased | no significant difference | decreased | excretion of acidic sterols compared with corresponding DA and DB (DHC) groups (Golden Syrian hamsters [1]; 0.2% and 0.3% diets, week 6): greater; reducing plasma TC, compared with DHC (Golden Syrian hamsters [4]; [10]): more effective than DHC; LDL receptor protein (LDL receptor [8]): significantly up-regulated; epididymal fat pad weight compared with the control ([5]; 0.3% in high cholesterol diet): decreased; Body Weight Final ([5]; 0.2% in high cholesterol diet): 118.43 ± 13.74 g; Body Weight Final ([5]; 0.3% in high cholesterol diet): 112.00 ± 8.05 g; reducing the formation of atherosclerotic plague, compared with DA and DB (DHC) diets (Golden Syrian hamsters [6]; 0.2% and 0.3% diets): more effective; atherosclerotic plague compared with the HCD control group (Golden Syrian hamsters [6]; 0.2% in high cholesterol diet): significantly lesser; atherosclerotic plague compared with the HCD control group (Golden Syrian hamsters [6]; 0.3% in high cholesterol diet): significantly lesser; LXRα protein mass ([7]; 0.2% in high cholesterol diet): significantly up-regulated; LXRα protein mass ([7]; 0.3% in high cholesterol diet): significantly up-regulated |
